Calls of active or inactive are those of the source. The rule behind the calls is not given here.
Columns and labels:
HCT-116 [1] = assay: Induction of apoptosis in Homo sapiens (human) HCT116 cells assessed as late apoptotic cells at 0.5 uM after 24 hr by Annexin V-FITC/PI staining based flow cytometry (reference value: 2.87%); type: functional
HCT-116 [2] = assay: Induction of apoptosis in Homo sapiens (human) HCT116 cells assessed as viable cells at 2 uM after 24 hr by Annexin V-FITC/PI staining based flow cytometry (reference value: 92.80%); type: functional; conditions: HCT-116, 24 h, read-out: Activity
HCT-116 [3] = assay: Induction of apoptosis in Homo sapiens (human) HCT116 cells assessed as early apoptotic cells at 8 uM after 24 hr by Annexin V-FITC/PI staining based flow cytometry (reference value: 3.73%); type: functional
HepG2 = assay: Antiproliferative activity against Homo sapiens (human) HepG2 cells assessed as growth inhibition after 48 hr by MTT assay; conditions: HepG2, 48 h
HCT-116 [4] = assay: Induction of apoptosis in Homo sapiens (human) HCT116 cells assessed as necrotic cells at 0.5 uM after 24 hr by Annexin V-FITC/PI staining based flow cytometry (reference value: 0.60%); type: functional
HCT-116 [5] = assay: Antiproliferative activity against Homo sapiens (human) HCT116 cells assessed as growth inhibition after 48 hr by MTT assay; conditions: HCT-116, 48 h
HCT-116 [6] = assay: Induction of apoptosis in Homo sapiens (human) HCT116 cells assessed as necrotic cells at 2 uM after 24 hr by Annexin V-FITC/PI staining based flow cytometry (reference value: 0.60%); type: functional
HCT-116 [7] = assay: Induction of apoptosis in Homo sapiens (human) HCT116 cells assessed as early apoptotic cells at 0.5 uM after 24 hr by Annexin V-FITC/PI staining based flow cytometry (reference value: 3.73%); type: functional
MCF7 = assay: Antiproliferative activity against Homo sapiens (human) MCF7 cells assessed as growth inhibition after 48 hr by MTT assay; conditions: MCF7, 48 h
HCT-116 [8] = assay: Induction of apoptosis in Homo sapiens (human) HCT116 cells assessed as late apoptotic cells at 2 uM after 24 hr by Annexin V-FITC/PI staining based flow cytometry (reference value: 2.87%); type: functional
HCT-116 [9] = assay: Induction of apoptosis in Homo sapiens (human) HCT116 cells assessed as viable cells at 8 uM after 24 hr by Annexin V-FITC/PI staining based flow cytometry (reference value: 92.80%); type: functional; conditions: HCT-116, 24 h, read-out: Activity
HCT-116 [10] = assay: Induction of apoptosis in Homo sapiens (human) HCT116 cells assessed as PARP cleavage at 0.5 to 8 uM by Western blot analysis; type: functional, cell-based
HCT-116 [11] = assay: Induction of apoptosis in Homo sapiens (human) HCT116 cells assessed as late apoptotic cells at 8 uM after 24 hr by Annexin V-FITC/PI staining based flow cytometry (reference value: 2.87%); type: functional
HCT-116 [12] = assay: Induction of apoptosis in Homo sapiens (human) HCT116 cells assessed as early apoptotic cells at 2 uM after 24 hr by Annexin V-FITC/PI staining based flow cytometry (reference value: 3.73%); type: functional
HCT-116 [13] = assay: Induction of apoptosis in Homo sapiens (human) HCT116 cells assessed as necrotic cells at 8 uM after 24 hr by Annexin V-FITC/PI staining based flow cytometry (reference value: 0.60%); type: functional
HCT-116 [14] = assay: Induction of apoptosis in Homo sapiens (human) HCT116 cells assessed as increase in cleaved caspase-3 level at 0.5 to 8 uM by Western blot analysis; type: functional, cell-based
HCT-116 [15] = assay: Induction of apoptosis in Homo sapiens (human) HCT116 cells assessed as viable cells at 0.5 uM after 24 hr by Annexin V-FITC/PI staining based flow cytometry (reference value: 92.80%); type: functional; conditions: HCT-116, 24 h, read-out: Activity

Compound | IC50 (HepG2) [µM] | IC50 (HCT-116 [5]) [µM] | IC50 (MCF7) [µM] | other results
O=C(CSc1nnc(-c2ccncc2)n1-c1ccccc1)N/N=C/c1ccc(O)cc1 | > 50 | > 50 | > 50 | –
Fc1ccccc1CSc1nnc(-c2ccncc2)n1-c1ccccc1 | > 50 | 12 | > 50 | –
COc1ccc(/C=N/NC(=O)CSc2nnc(-c3ccncc3)n2-c2ccccc2)cc1 | 27.1 | 19.2 | 23.7 | –
O=[N+]([O-])c1cccc(CSc2nnc(-c3ccncc3)n2-c2ccccc2)c1 | 22 | 19.8 | 18.3 | –
O=[N+]([O-])c1ccc(CSc2nnc(-c3ccncc3)n2-c2ccccc2)cc1 | > 50 | 23.8 | 22.8 | –
Brc1ccc(CSc2nnc(-c3ccncc3)n2-c2ccccc2)cc1 | 12.9 | 11.1 | 12.6 | –
Brc1ccccc1CSc1nnc(-c2ccncc2)n1-c1ccccc1 | 17.1 | 20.2 | 16.1 | –
Clc1ccc(CSc2nnc(-c3ccncc3)n2-c2ccccc2)cc1 | 16.9 | 10.7 | 13.3 | –
O=C(CSc1nnc(-c2ccncc2)n1-c1ccccc1)N/N=C/c1ccc([N+](=O)[O-])cc1 | 15.9 | 10.2 | 15.3 | –
O=C(CSc1nnc(-c2ccncc2)n1-c1ccccc1)N/N=C/c1cccc(F)c1 | 24.4 | > 50 | > 50 | –
O=C(CSc1nnc(-c2ccncc2)n1-c1ccccc1)N/N=C/c1ccc(O)c(O)c1 | 16.9 | 14.7 | 19.7 | –
Fc1cccc(F)c1CSc1nnc(-c2ccncc2)n1-c1ccccc1 | > 50 | 22.1 | > 50 | –
O=[N+]([O-])c1ccccc1CSc1nnc(-c2ccncc2)n1-c1ccccc1 | > 50 | > 50 | > 50 | –
O=C(CSc1nnc(-c2ccncc2)n1-c1ccccc1)N/N=C/c1ccccc1F | 15.2 | 18 | 22.4 | –
Fc1ccc(CSc2nnc(-c3ccncc3)n2-c2ccccc2)cc1 | 15.6 | 12.8 | 21.1 | –
Clc1ccccc1CSc1nnc(-c2ccncc2)n1-c1ccccc1 | 15.7 | 13.8 | 18.1 | –
O=C(CSc1nnc(-c2ccncc2)n1-c1ccccc1)N/N=C/c1ccccc1 | 18.6 | 14.7 | 23.6 | –
c1ccc(CSc2nnc(-c3ccncc3)n2-c2ccccc2)cc1 | 12.9 | 16.9 | 22.4 | –

Stronger by IC50 (HepG2), values ahead:

IC50 (HepG2) [µM] | IC50 (HCT-116 [5]) [µM] | IC50 (MCF7) [µM] | Compound | other results
4.39 | 1.99 | 6.46 | O=C(CSc1nnc(-c2ccncc2)n1-c1ccccc1)N/N=C/c1cc(Br)ccc1O | Activity (HCT-116 [1]): 3.27%; viability at 2 µM (HCT-116 [2]): 86.2%; Activity (HCT-116 [3]): 27.35%; Activity (HCT-116 [4]): 0.72%; Activity (HCT-116 [6]): 2.44%; Activity (HCT-116 [7]): 5.99%; Activity (HCT-116 [8]): 12.47%; viability at 8 µM (HCT-116 [9]): 31.6%; Activity (HCT-116 [10]): Active; Activity (HCT-116 [11]): 38.01%; Activity (HCT-116 [12]): 18.85%; Activity (HCT-116 [13]): 3.04%; Activity (HCT-116 [14]): Active; viability at 0.5 µM (HCT-116 [15]): 90%
5.99 | 4.5 | 7.04 | O=C(CSc1nnc(-c2ccncc2)n1-c1ccccc1)N/N=C/c1ccc(Br)cc1 | –
7.04 | 8.17 | 10 | Brc1cccc(CSc2nnc(-c3ccncc3)n2-c2ccccc2)c1 | Activity (HCT-116 [1]): 3.24%; viability at 2 µM (HCT-116 [2]): 78.3%; Activity (HCT-116 [3]): 12.3%; Activity (HCT-116 [4]): 0.28%; Activity (HCT-116 [6]): 1.08%; Activity (HCT-116 [7]): 8.24%; Activity (HCT-116 [8]): 9.25%; viability at 8 µM (HCT-116 [9]): 50.4%; Activity (HCT-116 [10]): Active; Activity (HCT-116 [11]): 31.69%; Activity (HCT-116 [12]): 11.39%; Activity (HCT-116 [13]): 5.59%; Activity (HCT-116 [14]): Active; viability at 0.5 µM (HCT-116 [15]): 88.2%
11.2 | 9.82 | 10.5 | Clc1cccc(CSc2nnc(-c3ccncc3)n2-c2ccccc2)c1 | –
10.2 | 11.4 | 14.1 | Fc1ccc(CSc2nnc(-c3ccncc3)n2-c2ccccc2)c(F)c1 | –
8.28 | 6.15 | 11.2 | O=C(CSc1nnc(-c2ccncc2)n1-c1ccccc1)N/N=C/C=C/c1ccccc1 | –
9.33 | 7.04 | 12.3 | O=C(CSc1nnc(-c2ccncc2)n1-c1ccccc1)N/N=C/c1ccc(F)cc1 | –
11 | 5.74 | 9.93 | O=C(CSc1nnc(-c2ccncc2)n1-c1ccccc1)N/N=C/c1ccc(Cl)cc1 | –
7.59 | 4.5 | 8.44 | O=C(CSc1nnc(-c2ccncc2)n1-c1ccccc1)N/N=C/c1cc(Br)cc(Br)c1O | –
11.3 | 7.06 | 10 | O=C(CSc1nnc(-c2ccncc2)n1-c1ccccc1)N/N=C/c1ccccc1O | –

Source: ChEMBL document CHEMBL3045354, “Synthesis, molecular modeling, and biological evaluation of 1,2,4-triazole derivatives containing pyridine as potential anti-tumor agents” (Med Chem Res, 2013)
